Like-named read-outs stand apart in the source and are kept apart here.
Key:
[1] = system: S. epidermidis ATCC 12228; experiment: Antibacterial assay, optical density of culture in TSB; assay type: cell-based, Staphylococcus epidermidis; details: 37 °C, 18 h
Procedure: (§1) Investigations were carried out using different concentrations of solutions from 25 to 250 µM. A 25 µM concentration of the tested derivatives was not enough to inhibit the growth of […]. When the concentration of analogs 7d–7f and 9a–9c increased to 200 µM, the growth of S. aureus ATCC 25923 and S. epidermidis ATCC 12228 was inhibited. Furthermore, the optical density of all compounds remained unchanged after 18 h of bacteria culture. In the case of analogs 7a–7c, the optical density values were between 0.9 and 2.2 when they were cultured with S. aureus ATCC 25923. The bacterial growth was slower compared to the control sample (TSB-culture medium). […] In the case of analog 7c, the optical density increased up to […] after 18 h of the sample culture with both kinds of Gram-positive bacteria. In contrast, the reference sample’s (TSB) optical density increased to 7.5 for S. aureus ATCC 25923, and 4.9 for S. epidermidis ATCC 12228 after 18 h of bacteria culture. […] All of the analog values of the measured optical density were similar to that of the reference sample (5.0–5.1, Table 3).
(§2) Antibacterial analysis was performed using the S. aureus ATCC 25923, S. epidermidis ATCC 12228, and Escherichia coli ATCC 25922 bacteria strains. The test compounds were dissolved in DMSO to obtain a stock solution with a concentration of 5 mM (betulin) or 10 mM (other test compounds). The stock solution was diluted with water to the desired concentration (25–250 µM). Then, 1 mL of the investigated solutions was mixed with 1 mL of culture medium (TSB, Biomaxima, Lublin, Poland) in a sterile glass tube. The initial concentration of bacteria was around 5 × 10^6 CFU/mL. The concentration of bacteria was measured using an optical densitometer before and after 18 h of bacteria culture in glass tubes at 37 °C (incubator POL-EKO, Wodzislaw Slaski, Poland). The investigations were repeated for three independent samples. The control sample was the culture medium without any supplementation.

[2] = system: Escherichia coli ATCC 25922; experiment: as above; assay type: cell-based; details: 37 °C, 18 h; further: key: 0: no difference between samples after 18 h of bacteria culture (bacteria grow was inhibited); neg: negative results (analog BN did not inhibit bacteria growing)
Procedure: as §1, §2

[3] = system: NHDF (Normal Human Dermal Fibroblast cells); experiment: Cytotoxicity, CCK-8 cell viability assay (safety on normal cells); assay type: cell-based; details: read-out: Activity IC50, NHDF
Procedure: (§3) The obtained new molecular hybrids of BN were screened in order to initially investigate their cytotoxicity as well as examine the relationships between the structure and biological effect. The common element of all of the tested compounds was the presence of a lipophilic moiety (CH2)nTPP^⊕ (n = 3, 4, 5). The research was conducted on two groups of compounds: 28-TPP^⊕ BN and 3,28-bisTPP^⊕ BN. Their cytotoxicity was investigated on two cancer cell lines: HCT 116 (colorectal carcinoma cell line) and MCF-7 (human breast adenocarcinoma cell line). The proliferation of tumor cells treated with the tested compounds (7 and 9) at 12.5–3.125 µM concentrations were determined after 24 h of incubation. Additionally, all compounds were tested against the NHDF cell line (Normal Human Dermal Fibroblast cells) to assess their safety. Half-maximal inhibitory concentrations (IC50) of triphenylphosphonium analogs of BN were determined using a CCK-8 assay and are summarized in Table 2.
(§4) The human colorectal carcinoma cell line (HCT 116) and the human breast adenocarcinoma cell line (MCF-7) cells were purchased from the American Type Culture Collection (ATCC, Manassas, VA, USA). The Normal Human Dermal Fibroblast (NHDF) cells were purchased from Lonza (Dermal Fibroblasts, Lonza, Poland). All cells were cultured under standard conditions at 37 °C in a humidified atmosphere at 5% CO2 in DMEM/F12 medium (PAA) supplemented with 10% of heat-inactivated fetal bovine serum (FBS, EURx, Gdansk, Poland) and antibiotics (penicillin/streptomycin).
(§5) Cells were seeded at 7500 (HCT 116) or 10,000 (MCF-7, NHDF) cells/well in 96-well plates. After 24 h, the culture medium was removed and 100 µL of fresh medium containing the test compounds at 0–12.5 µM concentrations was added to the culture wells. The test compounds were dissolved in DMSO to obtain a stock solution with a concentration of 5 mM (betulin) or 10 mM (other test compounds). The stock solution was diluted with the fresh culture medium to the desired concentration. Controls were cells grown in medium without the addition of test compounds. After 24 h of incubation with the test compounds, 10 µL of CCK-8 reagent (Bimake, Houston, TX, USA) was added to each well. After 2 h, the absorbance of the samples was measured at a wavelength of 450 nm using a microplate reader (Epoch, BioTek Instruments, Winooski, VT, USA). The determinations were conducted in at least three biological replications (each biological replication contained 3 technical replications). The cell viability rate was calculated using CalcuSyn software (version 2.0, Biosoft, Cambridge, UK).

[4] = system: HCT 116 (colorectal carcinoma cell line); experiment: Cytotoxicity, CCK-8 cell viability assay; assay type: cell-based; details: Homo sapiens, read-out: Activity IC50, HCT 116
Procedure: as §3, §4, §5

[5] = system: MCF-7 (human breast adenocarcinoma cell line); experiment: Cytotoxicity, CCK-8 cell viability assay; assay type: cell-based; details: read-out: Activity IC50, MCF-7
Procedure: as §3, §4
as §5, with “After 24 h, the culture medium was removed and 100 µL of fresh medium containing the test compounds at 0–12.5 µM concentrations was added to the culture wells.” left out

S. aureus ATCC 25923 = experiment: Antibacterial assay, optical density of culture in TSB; assay type: cell-based, Staphylococcus aureus; details: 37 °C, 18 h
Procedure: as §1, §2

| SMILES | Difference between optical density before and after culture, S. epidermidis ATCC 12228 ([1]; 200 μM) | Difference between optical density before and after culture, S. epidermidis ATCC 12228 ([1]; 250 μM) | Difference between optical density before and after culture, Escherichia coli ATCC 25922 ([2]; 200 μM) | Difference between optical density before and after culture, Escherichia coli ATCC 25922 ([2]; 250 μM) | IC50 ([3]; 24 h) | IC50 ([4]; HCT-116, 24 h) | IC50 ([5]; MCF7, 24 h) | Difference between optical density before and after culture, S. aureus ATCC 25923 (S. aureus ATCC 25923; 200 μM) | Difference between optical density before and after culture, S. aureus ATCC 25923 (S. aureus ATCC 25923; 250 μM) | IC50 ([3]; CCK-8 assay, incubation time 24 h, mean ± SD (n = 3)) | IC50 ([4]; HCT-116, CCK-8 assay, incubation time 24 h, mean ± SD (n = 3)) | IC50 ([5]; MCF7, CCK-8 assay, incubation time 24 h, mean ± SD (n = 3)) |
| --- | --- | --- | --- | --- | --- | --- | --- | --- | --- | --- | --- | --- |
| C=C(C)[C@@H]1CC[C@]2(COC(=O)CCC(=O)OCCCC[P+](c3ccccc3)(c3ccccc3)c3ccccc3)CC[C@]3(C)C(CCC4[C@@]5(C)CC[C@H](OC(=O)CCC(=O)OCCCC[P+](c6ccccc6)(c6ccccc6)c6ccccc6)C(C)(C)C5CC[C@]43C)C12 (stereo partly drawn) [9b, 3,28-O,O’-Bis(3’-(4"-triphenylphosphoniobutyloxycarbonyl)propanoyl)betulin bromide] | 0 | 0 | neg | neg | 8.02 ± 0.35 µM | 7.97 ± 0.51 µM | 23.6 ± 0.33 µM | 0 | 0 | – | – | – |
| C=C(C)[C@@H]1CC[C@]2(COC(=O)CCC(=O)OCCCCC[P+](c3ccccc3)(c3ccccc3)c3ccccc3)CC[C@]3(C)C(CCC4[C@@]5(C)CC[C@H](OC(=O)CCC(=O)OCCCCC[P+](c6ccccc6)(c6ccccc6)c6ccccc6)C(C)(C)C5CC[C@]43C)C12 (stereo partly drawn) [9c, 3,28-O,O′-Bis(3’-(5"-triphenylphosphoniopentyloxycarbonyl)propanoyl)betulin bromide] | 0 | 0 | neg | neg | 10.6 ± 0.34 µM | 19 ± 0.51 µM | 53.3 ± 5.41 µM | 0 | 0 | – | – | – |
| C=C(C)[C@@H]1CC[C@]2(CO)CC[C@]3(C)[C@H](CC[C@@H]4[C@@]5(C)CC[C@H](O)C(C)(C)[C@@H]5CC[C@]43C)[C@@H]12 [BN, 3-lup-20(29)-ene-3,28-diol, reference compound] | neg | 4.7 McFarland’s scale (CFU/mL) | neg | neg | – | – | – | 5.1 McFarland’s scale (CFU/mL) | 5.6 McFarland’s scale (CFU/mL) | > 12.5 µM | > 12.5 µM | > 12.5 µM |

From paper PMC9416257, “Design, Synthesis and Preliminary Evaluation of the Cytotoxicity and Antibacterial Activity of Novel Triphenylphosphonium Derivatives of Betulin” (Molecules, 2022)
